Measured values taken from PubChem BioAssay (NCI).
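Each compound was tested at five concentrations against cells in 96-well plates for 48 hours. At the TGI there is no net growth.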

Key:
Assay in all cases: NCI tumour cell line growth inhibition, 48 h
[1] = system: 786-0 renal
[2] = system: A498 renal
[3] = system: A549 NSCLC
[4] = system: ACHN renal
[5] = system: BT-549 breast
[6] = system: CAKI-1 renal
[7] = system: CCRF-CEM leukemia
[8] = system: COLO 205 colon
[9] = system: DU-145 prostate
[10] = system: EKVX NSCLC
[11] = system: HCT-116 colon
[12] = system: HCT-15 colon
[13] = system: HL-60(TB) leukemia
[14] = system: HOP-62 NSCLC
[15] = system: HOP-92 NSCLC
[16] = system: HS 578T breast
[17] = system: HT29 colon
[18] = system: IGROV1 ovarian
[19] = system: K-562 leukemia
[20] = system: KM12 colon
[21] = system: LOX IMVI melanoma
[22] = system: M14 melanoma
[23] = system: MALME-3M melanoma
[24] = system: MCF7 breast
[25] = system: MDA-MB-231 breast
[26] = system: MDA-MB-435
[27] = system: MDA-N
[28] = system: MOLT-4 leukemia
[29] = system: NCI-H226 lung
[30] = system: NCI-H23 lung
[31] = system: NCI-H522 lung
[32] = system: NCI/ADR-RES ovarian
[33] = system: OVCAR-3 ovarian
[34] = system: OVCAR-4 ovarian
[35] = system: OVCAR-5 ovarian
[36] = system: OVCAR-8 ovarian
[37] = system: PC-3 prostate
[38] = system: RPMI-8226 leukemia
[39] = system: SF-268 CNS
[40] = system: SF-295 CNS
[41] = system: SF-539 CNS
[42] = system: SK-MEL-2 melanoma
[43] = system: SK-MEL-28 melanoma
[44] = system: SK-MEL-5 melanoma
[45] = system: SK-OV-3 ovarian
[46] = system: SN12C renal
[47] = system: SNB-19 CNS
[48] = system: SR leukemia
[49] = system: SW-620 colon
[50] = system: T-47D breast
[51] = system: TK-10 renal
[52] = system: U251 CNS
[53] = system: UACC-62 melanoma
[54] = system: UO-31 renal

Measured: TGI

CO/N=C1\CCC2(O)C3Cc4ccc(O)c5c4C2(CCN3CC2CC2)[C@H]1O5 (some centres undefined)
> 100 µM: [1] | [2] | [3] | [4] | [5] | [6] | [7] | [8] | [9] | [10] | [11] | [12] | [13] | [14] | [15] | [16] | [17] | [18] | [19] | [20] | [21] | [22] | [23] | [24] | [25] | [26] | [27] | [28] | [29] | [30] | [31] | [32] | [33] | [34] | [35] | [36] | [37] | [38] | [39] | [40] | [41] | [42] | [43] | [44] | [45] | [46] | [47] | [48] | [49] | [50] | [51] | [52] | [53] | [54]
